Experimental findings from patent US8969565B2, “Imidazo[1,2-b]pyridazine-based compounds, compositions comprising them, and methods of their use” (Lexicon Pharmaceuticals, Inc., priority 2012, dated 2015) are described below.

SMILES strings stand for the structures.

Assay [1] concerns the target T1, AAK1 (Homo sapiens, UniProt Q2M2I8).
T1 construct: HA; expressed in transfected cells; host or cells: HEK293F
As to the kind of experiment: P81 filter plate assay. In kind it is biochemical. The settings on record: full-length human AAK1, Mu2 substrate. As for the experimental part:
Compounds were serially diluted into a Labcyte LDV plate (Labcyte, cat#LP-0200) using a Mutiprobe (PerkinElmer) and Biomek FX (Beckman Coulter) so that the highest compound concentration was at 96 μM. Compounds were then pinged (75 nL per well) into a Greiner 384-well reaction plate (Greiner, #781076) using an ECHO 550 Liquid Handler (Labcyte). A total of 12 μl reaction buffer (IMAP buffer containing Tween and DTT, from Molecular Devices) was then added to each well of columns 1 and 13 for the negative controls and 12 μl of 2×AAK1 (0.2 nM full-length human protein, NCBI accession no. NP_055726.2) was added to the remaining wells. Enzyme was then pre-incubated with compound for 10 minutes at RT. Reactions were initiated upon Minitrak (PerkinElmer) addition of 12 μl substrate mix containing 2×Mu2 (0.2 μM, full length human protein), 2× cold ATP (2 μM), and 1.3 μCi of hot ^33P-ATP. Reactions proceeded for one hour at RT. Meanwhile, Millipore 384-well P81 filter plates (Millipore, catalog #MZPHNOW10) were placed on a plate washer (Zoom ZW, from Titertek) and pre-wet with 50 μl 1% phosphoric acid. Kinase reactions were then stopped upon addition of 24 μl of 2% phosphoric acid to each well and the Minitrak was then used to transfer 40 μl from each well into the pre-wet Millipore 384-well P81 filter plates. Reaction mixtures were incubated for 10 minutes at RT in the P81 plates, followed by washing five times with 100 μl/well of 1% phosphoric acid using the Zoom filter washer. The bottom of each filter plate was sealed followed by addition of 20 μl Microscint 40 to each well, sealing the top of the plates with Flashplate cover, and then waiting one hour until reading on the TopCount (PerkinElmer).

Assay [2] concerns the target T1, AAK1. As to the kind of experiment: HEK281 cell-based assay (phospho-mu2 Western blot in transfected HEK293F cells). As to conditions: 3 hours incubation, read-out: CBA IC50. The method, boiled down:
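After 3 hours at 37° C. with compound (five 3-fold-spaced concentrations, DMEM+0.5% FBS), transiently transfected HEK293F cells expressing full-length human AAK1 and Flag-tagged mu2 were lysed. mu2 phosphorylation was read by anti-phospho-mu2 immunoblot, normalized against total mu2 by anti-Flag blot.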

T1 sequence (Q2M2I8 1-863 isoform Q2M2I8-2): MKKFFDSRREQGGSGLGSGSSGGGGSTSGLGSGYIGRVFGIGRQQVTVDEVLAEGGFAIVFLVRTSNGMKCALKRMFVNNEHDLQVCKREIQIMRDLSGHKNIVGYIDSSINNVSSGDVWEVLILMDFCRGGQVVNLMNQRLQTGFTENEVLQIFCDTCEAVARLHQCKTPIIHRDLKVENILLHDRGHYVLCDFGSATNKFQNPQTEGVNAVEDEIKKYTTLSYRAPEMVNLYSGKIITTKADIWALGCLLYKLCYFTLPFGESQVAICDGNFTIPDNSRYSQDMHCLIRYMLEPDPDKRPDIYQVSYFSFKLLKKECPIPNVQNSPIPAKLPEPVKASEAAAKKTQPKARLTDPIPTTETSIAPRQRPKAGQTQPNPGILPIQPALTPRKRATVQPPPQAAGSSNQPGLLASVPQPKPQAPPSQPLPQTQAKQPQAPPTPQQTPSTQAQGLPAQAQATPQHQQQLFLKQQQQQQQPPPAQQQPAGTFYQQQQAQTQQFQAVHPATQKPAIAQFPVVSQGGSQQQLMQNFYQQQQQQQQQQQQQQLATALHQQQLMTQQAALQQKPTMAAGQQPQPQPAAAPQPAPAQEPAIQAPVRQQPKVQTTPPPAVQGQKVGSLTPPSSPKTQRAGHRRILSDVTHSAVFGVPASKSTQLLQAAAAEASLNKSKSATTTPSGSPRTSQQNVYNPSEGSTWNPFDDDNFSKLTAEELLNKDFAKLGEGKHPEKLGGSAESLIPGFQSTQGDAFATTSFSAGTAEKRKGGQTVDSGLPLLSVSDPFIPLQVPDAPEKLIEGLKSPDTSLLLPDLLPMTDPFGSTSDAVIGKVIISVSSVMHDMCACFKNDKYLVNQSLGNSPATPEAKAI

For the molecule `CC(=O)c1cnc2ccc(N3CCN(C(=O)C4(N)CCCC4)CC3)nn12` [1-(6-(4-(1-aminocyclopentanecarbonyl)piperazin-1-yl)imidazo[1,2-b]pyridazin-3-yl)ethanone], at AAK1 [1], the IC50 is ≤ 100 nM.
Take `CC(C)(C)C(=O)N1CCN(c2ccc3ncc(-c4ccccc4)n3n2)CC1` [2,2-dimethyl-1-(4-(3-phenylimidazo[1,2-b]pyridazin-6-yl)piperazin-1-yl)propan-1-one]: the IC50 against AAK1 [1] was ≤ 100 nM.
Same read-out and setting: under `O=C(OC1CCOC1)N1CCC[C@H]1CNc1ccc2ncc(-c3ccncc3)n2n1` (stereo partly drawn) [(2S)-tetrahydrofuran-3-yl 2-(((3-(pyridin-4-yl)imidazo[1,2-b]pyridazin-6-yl)amino)methyl)pyrrolidine-1-carboxylate] stands ≤ 10 nM; under `O=C(OC1CCOC1)N1CCC[C@H]1CNc1ccc2ncc(Br)n2n1` (stereo partly drawn) [(2S)-tetrahydrofuran-3-yl 2-(((3-bromoimidazo[1,2-b]pyridazin-6-yl)amino)methyl)pyrrolidine-1-carboxylate], ≤ 10 nM.
Still for that read-out and setting: next, `OCc1ccc(-c2cnc3ccc(NCCOC4CCCC4)nn23)cc1` [(4-(6-((2-(cyclopentyloxy)ethyl)amino)imidazo[1,2-b]pyridazin-3-yl)phenyl)methanol]: ≤ 10 nM.
Still for that read-out and setting: next, `CC(C)CC(=O)N1CCC[C@H]1CNc1ccc2ncc(-c3ccnc(F)c3)n2n1` [(S)-1-(2-(((3-(2-fluoropyridin-4-yl)imidazo[1,2-b]pyridazin-6-yl)amino)methyl)pyrrolidin-1-yl)-3-methylbutan-1-one]: ≤ 10 nM; `CC(C)CC(=O)N1CCC[C@H]1CNc1ccc2ncc(C3=CCCC3)n2n1` [(S)-1-(2-(((3-(cyclopent-1-en-1-yl)imidazo[1,2-b]pyridazin-6-yl)amino)methyl)pyrrolidin-1-yl)-3-methylbutan-1-one]: ≤ 10 nM.
As for `CCCC(=O)N1CCC[C@H]1CNc1ccc2ncc(-c3ccncc3)n2n1` [(S)-1-(2-(((3-(pyridin-4-yl)imidazo[1,2-b]pyridazin-6-yl)amino)methyl)pyrrolidin-1-yl)butan-1-one], at AAK1 [1], the IC50 was ≤ 10 nM.
Same read-out and setting: under `CC(C)(C)CCN1C(=O)CC[C@H]1CNc1ccc2ncc(-c3ccncc3)n2n1` [(S)-1-(3,3-dimethylbutyl)-5-(((3-(pyridin-4-yl)imidazo[1,2-b]pyridazin-6-yl)amino)methyl)pyrrolidin-2-one] stands ≤ 10 nM; under `COc1ncccc1-c1cnc2ccc(N3CC[C@H](O)C3)nn12` [(S)-1-(3-(2-methoxypyridin-3-yl)imidazo[1,2-b]pyridazin-6-yl)pyrrolidin-3-ol], ≤ 1000 nM.
With `COC(=O)N(CCNc1ccc2ncc(-c3ccncc3OC)n2n1)C(C)C` [methyl isopropyl(2-((3-(3-methoxypyridin-4-yl)imidazo[1,2-b]pyridazin-6-yl)amino)ethyl)carbamate], the IC50 at AAK1 [2] was ≤ 10 nM.
On the same count and under the same terms, next, `CCCOC(=O)N(CCNc1ccc2ncc(-c3ccncc3OC)n2n1)C(C)C` [propyl isopropyl(2-((3-(3-methoxypyridin-4-yl)imidazo[1,2-b]pyridazin-6-yl)amino)ethyl)carbamate]: ≤ 1000 nM.
As to `CC(C)(C)OC(=O)N1CCCC1CCNc1ccc2ncc(-c3ccc(CN)cc3)n2n1` (stereo not drawn) [tert-butyl 2-(2-((3-(4-(aminomethyl)phenyl)imidazo[1,2-b]pyridazin-6-yl)amino)ethyl)pyrrolidine-1-carboxylate], the IC50 at AAK1 [2] was ≤ 10 nM.
With `CC(C)(C)OC(=O)N1CCCC1CCNc1ccc2ncc(-c3ccc(C(N)=O)cc3)n2n1` (stereo not drawn) [tert-butyl 2-(2-((3-(4-carbamoylphenyl)imidazo[1,2-b]pyridazin-6-yl)amino)ethyl)pyrrolidine-1-carboxylate], at AAK1 [2], the half-maximal inhibitory concentration (IC50) was ≤ 100 nM.
As to `COc1cnccc1-c1cnc2ccc(N3CCN(C(=O)OC(C)(C)C)CC3)nn12` [tert-butyl 4-(3-(3-methoxypyridin-4-yl)imidazo[1,2-b]pyridazin-6-yl)piperazine-1-carboxylate], at AAK1 [2], the IC50 was ≤ 10 nM.
Same read-out and setting: next, `CC(C)(C)OC(=O)N1CCN(c2ccc3ncc(Cl)n3n2)CC1` [tert-butyl 4-(3-chloroimidazo[1,2-b]pyridazin-6-yl)piperazine-1-carboxylate]: ≤ 100 nM; `CN(CCNc1ccc2ncc(-c3ccnc(N)c3)n2n1)C(=O)OC(C)(C)C` [tert-butyl (2-((3-(2-aminopyridin-4-yl)imidazo[1,2-b]pyridazin-6-yl)amino)ethyl)(methyl)carbamate]: ≤ 10 nM.
On the same count and under the same terms, next, `CN(CCNc1ccc2ncc(-c3ccccc3F)n2n1)C(=O)OC(C)(C)C` [tert-butyl (2-((3-(2-fluorophenyl)imidazo[1,2-b]pyridazin-6-yl)amino)ethyl)(methyl)carbamate]: ≤ 100 nM; `CN(CCNc1ccc2ncc(-c3ccnc(F)c3)n2n1)C(=O)OC(C)(C)C` [tert-butyl (2-((3-(2-fluoropyridin-4-yl)imidazo[1,2-b]pyridazin-6-yl)amino)ethyl)(methyl)carbamate]: ≤ 100 nM; `COc1ccccc1-c1cnc2ccc(NCCN(C)C(=O)OC(C)(C)C)nn12` [tert-butyl (2-((3-(2-methoxyphenyl)imidazo[1,2-b]pyridazin-6-yl)amino)ethyl)(methyl)carbamate]: ≤ 100 nM.
Still for that read-out and setting: under `CN(CCNc1ccc2ncc(-c3cccc(C(N)=O)c3)n2n1)C(=O)OC(C)(C)C` [tert-butyl (2-((3-(3-carbamoylphenyl)imidazo[1,2-b]pyridazin-6-yl)amino)ethyl)(methyl)carbamate] stands ≤ 100 nM; under `COc1cccc(-c2cnc3ccc(NCCN(C)C(=O)OC(C)(C)C)nn23)c1` [tert-butyl (2-((3-(3-methoxyphenyl)imidazo[1,2-b]pyridazin-6-yl)amino)ethyl)(methyl)carbamate], ≤ 100 nM; under `COc1cnccc1-c1cnc2ccc(NCCN(C)C(=O)OC(C)(C)C)nn12` [tert-butyl (2-((3-(3-methoxypyridin-4-yl)imidazo[1,2-b]pyridazin-6-yl)amino)ethyl)(methyl)carbamate], ≤ 1000 nM.
Take `CC(C)(C)OC(=O)NCCNc1ccc2ncc(-c3ccc(CN)cc3)n2n1` [tert-butyl (2-((3-(4-(aminomethyl)phenyl)imidazo[1,2-b]pyridazin-6-yl)amino)ethyl)carbamate]: the half-maximal inhibitory concentration (IC50) on AAK1 [2] is ≤ 100 nM.
Same read-out and setting: under `CN(CCNc1ccc2ncc(-c3ccc(CC#N)cc3)n2n1)C(=O)OC(C)(C)C` [tert-butyl (2-((3-(4-(cyanomethyl)phenyl)imidazo[1,2-b]pyridazin-6-yl)amino)ethyl)(methyl)carbamate] stands ≤ 100 nM; under `CC(C)N(CCNc1ccc2ncc(-c3ccc(C(N)=O)cc3)n2n1)C(=O)OC(C)(C)C` [tert-butyl (2-((3-(4-carbamoylphenyl)imidazo[1,2-b]pyridazin-6-yl)amino)ethyl)(isopropyl)carbamate], ≤ 10 nM.
Same read-out and setting: under `CC(=O)c1ccc(-c2cnc3ccc(NCCN(C)C(=O)OC(C)(C)C)nn23)s1` [tert-butyl (2-((3-(5-acetylthiophen-2-yl)imidazo[1,2-b]pyridazin-6-yl)amino)ethyl)(methyl)carbamate] stands ≤ 10 nM.
On the same count and under the same terms, under `CN(CCCNc1ccc2ncc(-c3ccc(CN)cc3)n2n1)C(=O)OC(C)(C)C` [tert-butyl (3-((3-(4-(aminomethyl)phenyl)imidazo[1,2-b]pyridazin-6-yl)amino)propyl)(methyl)carbamate] stands ≤ 100 nM; under `CC(=O)c1ccc(-c2cnc3ccc(NCCCN(C)C(=O)OC(C)(C)C)nn23)s1` [tert-butyl (3-((3-(5-acetylthiophen-2-yl)imidazo[1,2-b]pyridazin-6-yl)amino)propyl)(methyl)carbamate], ≤ 100 nM.
With `COc1cnccc1-c1cnc2ccc(NCCN(C(=O)OC(C)(C)C)C(C)C)nn12` [tert-butyl isopropyl(2-((3-(3-methoxypyridin-4-yl)imidazo[1,2-b]pyridazin-6-yl)amino)ethyl)carbamate], on AAK1 [2], the IC50 is ≤ 100 nM.
Take `CNC(=O)c1ccc(-c2cnc3ccc(NCCN(C)C(=O)OC(C)(C)C)nn23)cc1` [tert-butyl methyl(2-((3-(4-(methylcarbamoyl)phenyl)imidazo[1,2-b]pyridazin-6-yl)amino)ethyl)carbamate]: the IC50 on AAK1 [2] was ≤ 100 nM.
Regarding `CN(CCNc1ccc2ncc(-c3ccc(C4CCCN4)cc3)n2n1)C(=O)OC(C)(C)C` (stereo not drawn) [tert-butyl methyl(2-((3-(4-(pyrrolidin-2-yl)phenyl)imidazo[1,2-b]pyridazin-6-yl)amino)ethyl)carbamate], the concentration for half-maximal inhibition (IC50) at AAK1 [2] is ≤ 10 nM.
Still for that read-out and setting: next, `CN(CCNc1ccc2ncc(-c3ccncc3)n2n1)C(=O)OC(C)(C)C` [tert-butyl methyl(2-((3-(pyridin-4-yl)imidazo[1,2-b]pyridazin-6-yl)amino)ethyl)carbamate]: ≤ 100 nM.
